Laboratory results from ChEMBL document CHEMBL4229381, “New cytokinin derivatives possess UVA and UVB photoprotective effect on human skin cells and prevent oxidative stress” (Eur J Med Chem, 2018).
The source made the active and inactive calls. The calls are words filed in the database; no cut-off is given here.

Key:
Triticum aestivum = assay: Anti-senescent activity in leaf of Triticum aestivum cv. Hereward seedlings by measuring chlorophyll retention at 10^-4 mol/L after 4 days relative to control; assay type: functional
Amaranthus caudatus [1] = assay: Growth promoting activity in Amaranthus caudatus var. atropurpurea seeds by measuring betacyanin at 10^-4 mol/L after 48 hrs relative to control; assay type: functional
Nicotiana tabacum = assay: Growth promoting activity in tobacco callus assessed as callus weight at 10^-5 mol/L after 4 weeks relative to control; assay type: functional
Amaranthus caudatus [2] = assay: Growth promoting activity in Amaranthus caudatus var. atropurpurea seeds by measuring betacyanin at 10^-5 mol/L after 48 hrs relative to control; assay type: functional
NHDF [3] = assay: Cytoprotection against phototoxicity in human NHDF cells assessed as increase in cell viability at 3.9 to 31.3 uM preincubated for 60 mins followed by 150 mJ/cm2 UVB irradiation and measured after 24 hrs by neutral red uptake assay; assay type: functional, cell-based
Caenorhabditis elegans [4] = assay: Protection against juglone-induced oxidative stress in Caenorhabditis elegans BA17 (fem-1) at 100 uM preincubated for 3 days followed by juglone addition measured every hour for 12 ro 14 hrs by inverted microscopic analysis; assay type: functional, organism-based
NHDF [5] = assay: Cytoprotection against phototoxicity in human NHDF cells assessed as increase in cell viability at 3.9 to 31.3 uM preincubated for 60 mins followed by 7.5 J/cm2 UVA irradiation and measured after 24 hrs by neutral red uptake assay; assay type: functional, cell-based
[6] = Stability of the compound in pH 6 solution at 10^-4 M after 24 hrs by HPLC analysis; assay type: physicochemical; conditions: read-out: Stability
[7] = Phototoxicity in human HaCaT cells assessed as cell viability at 7.8 uM preincubated for 60 mins followed by 7.5 J/cm2 UVA irradiation and measured after 24 hrs by neutral red uptake assay relative to control; assay type: cell-based; conditions: read-out: Activity
[8] = Cytotoxicity in human HaCaT cells assessed as cell viability at 31.3 uM after 24 hrs by neutral red uptake assay relative to control; assay type: cell-based; conditions: read-out: Activity
BJ = assay: Cytotoxicity in human BJ cells assessed as reduction in cell viability at 50 uM after 24 hrs by resazurin dye-based fluorescence assay relative to control
[9] = Stability of the compound in pH 6 solution at 10^-4 M after 1 hr by HPLC analysis; assay type: physicochemical; conditions: read-out: Stability
[10] = Phototoxicity in human HaCaT cells assessed as cell viability at 15.6 uM preincubated for 60 mins followed by 7.5 J/cm2 UVA irradiation and measured after 24 hrs by neutral red uptake assay relative to control; assay type: cell-based; conditions: read-out: Activity
[11] = Cytotoxicity in human HaCaT cells assessed as cell viability at 125 uM after 24 hrs by neutral red uptake assay relative to control; assay type: cell-based; conditions: read-out: Activity
[12] = Cytotoxicity in human HaCaT cells assessed as cell viability at 62.5 uM after 24 hrs by neutral red uptake assay relative to control; assay type: cell-based; conditions: read-out: Activity
[13] = Phototoxicity in human HaCaT cells assessed as cell viability at 3.9 uM preincubated for 60 mins followed by 7.5 J/cm2 UVA irradiation and measured after 24 hrs by neutral red uptake assay relative to control; assay type: cell-based; conditions: read-out: Activity
[14] = Phototoxicity in human NHDF cells assessed as cell viability at 3.9 uM preincubated for 60 mins followed by 5 J/cm2 UVA irradiation and measured after 24 hrs by neutral red uptake assay relative to control; assay type: cell-based; conditions: read-out: Activity
[15] = Stability of the compound in pH 5 solution at 10^-4 M after 24 hrs by HPLC analysis; assay type: physicochemical; conditions: read-out: Stability
[16] = Stability of the compound in pH 3 solution at 10^-4 M after 24 hrs by HPLC analysis; assay type: physicochemical; conditions: read-out: Stability
[17] = Cytotoxicity in human NHDF cells assessed as cell viability at 31.3 uM after 24 hrs by neutral red uptake assay relative to control; assay type: cell-based; conditions: read-out: Activity
[18] = Stability of the compound in pH 5 solution at 10^-4 M after 1 hr by HPLC analysis; assay type: physicochemical; conditions: read-out: Stability
[19] = Phototoxicity in human HaCaT cells assessed as cell viability at 31.3 uM preincubated for 60 mins followed by 7.5 J/cm2 UVA irradiation and measured after 24 hrs by neutral red uptake assay relative to control; assay type: cell-based; conditions: read-out: Activity
[20] = Stability of the compound in pH 4 solution at 10^-4 M after 1 hr by HPLC analysis; assay type: physicochemical; conditions: read-out: Stability
[21] = Cytotoxicity in human HaCaT cells assessed as cell viability at 7.8 uM after 24 hrs by neutral red uptake assay relative to control; assay type: cell-based; conditions: read-out: Activity
[22] = Phototoxicity in human NHDF cells assessed as cell viability at 31.3 uM preincubated for 60 mins followed by 5 J/cm2 UVA irradiation and measured after 24 hrs by neutral red uptake assay relative to control; assay type: cell-based; conditions: read-out: Activity
[23] = Phototoxicity in human NHDF cells assessed as cell viability at 125 uM preincubated for 60 mins followed by 5 J/cm2 UVA irradiation and measured after 24 hrs by neutral red uptake assay relative to control; assay type: cell-based; conditions: read-out: Activity
Caenorhabditis elegans [24] = assay: Protection against juglone-induced oxidative stress in wild type Caenorhabditis elegans N2 at 100 uM preincubated for 3 days followed by juglone addition and measured after 4 hrs by inverted microscopic analysis; assay type: functional, organism-based
[25] = Cytotoxicity in human NHDF cells assessed as cell viability at 125 uM after 24 hrs by neutral red uptake assay relative to control; assay type: cell-based; conditions: read-out: Activity
[26] = Phototoxicity in human HaCaT cells assessed as cell viability at 62.5 uM preincubated for 60 mins followed by 7.5 J/cm2 UVA irradiation and measured after 24 hrs by neutral red uptake assay relative to control; assay type: cell-based; conditions: read-out: Activity
HaCaT [27] = assay: Cytoprotection against phototoxicity in human HaCaT cells assessed as increase in cell viability at 3.9 uM preincubated for 60 mins followed by 10 J/cm2 UVA irradiation and measured after 24 hrs by neutral red uptake assay; assay type: functional, cell-based
[28] = Stability of the compound in pH 3 solution at 10^-4 M after 1 hr by HPLC analysis; assay type: physicochemical; conditions: read-out: Stability
HaCaT [29] = assay: Cytotoxicity in human HaCaT cells assessed as reduction in cell viability at 50 uM after 24 hrs by resazurin dye-based fluorescence assay relative to control
[30] = Phototoxicity in human NHDF cells assessed as cell viability at 15.6 uM preincubated for 60 mins followed by 5 J/cm2 UVA irradiation and measured after 24 hrs by neutral red uptake assay relative to control; assay type: cell-based; conditions: read-out: Activity
[31] = Cytotoxicity in human HaCaT cells assessed as cell viability at 3.9 uM after 24 hrs by neutral red uptake assay relative to control; assay type: cell-based; conditions: read-out: Activity
[32] = Cytotoxicity in human HaCaT cells assessed as cell viability at 15.6 uM after 24 hrs by neutral red uptake assay relative to control; assay type: cell-based; conditions: read-out: Activity
[33] = Cytotoxicity in human NHDF cells assessed as cell viability at 62.5 uM after 24 hrs by neutral red uptake assay relative to control; assay type: cell-based; conditions: read-out: Activity
[34] = Cytotoxicity in human NHDF cells assessed as cell viability at 15.6 uM after 24 hrs by neutral red uptake assay relative to control; assay type: cell-based; conditions: read-out: Activity
[35] = Phototoxicity in human NHDF cells assessed as cell viability at 62.5 uM preincubated for 60 mins followed by 5 J/cm2 UVA irradiation and measured after 24 hrs by neutral red uptake assay relative to control; assay type: cell-based; conditions: read-out: Activity
[36] = Antioxidant activity assessed as trolox equivalent of AAPH-induced radical scavenging activity at 1 uM pretreated for 15 mins followed by […] challenge measured every 3 mins over 90 mins by ORAC-FL assay; assay type: functional
[37] = Stability of the compound in pH 4 solution at 10^-4 M after 24 hrs by HPLC analysis; assay type: physicochemical; conditions: read-out: Stability
[38] = Phototoxicity in human NHDF cells assessed as cell viability at 7.8 uM preincubated for 60 mins followed by 5 J/cm2 UVA irradiation and measured after 24 hrs by neutral red uptake assay relative to control; assay type: cell-based; conditions: read-out: Activity
[39] = Phototoxicity in human HaCaT cells assessed as cell viability at 125 uM preincubated for 60 mins followed by 7.5 J/cm2 UVA irradiation and measured after 24 hrs by neutral red uptake assay relative to control; assay type: cell-based; conditions: read-out: Activity
[40] = Cytotoxicity in human NHDF cells assessed as cell viability at 3.9 uM after 24 hrs by neutral red uptake assay relative to control; assay type: cell-based; conditions: read-out: Activity
[41] = Cytotoxicity in human NHDF cells assessed as cell viability at 7.8 uM after 24 hrs by neutral red uptake assay relative to control; assay type: cell-based; conditions: read-out: Activity

Molecule `c1nc(NCC2CCCC2)c2nc[nH]c2n1` has an Activity (Triticum aestivum) of 71%, an Activity (Amaranthus caudatus [1]) of 97% and an Activity (Nicotiana tabacum) of 100%.
`c1csc(CNc2[nH]cnc3ncnc2-3)c1` showed an Activity (Triticum aestivum) of 60%, an Activity (Amaranthus caudatus [2]) of 95% and an Activity (Nicotiana tabacum) of 102%.
With `c1coc(CNc2ncnc3c2ncn3C2CCCO2)c1` (centres undefined) the Activity (Triticum aestivum) was 125%, the Activity (NHDF [3]) was “Active” and the Activity (Amaranthus caudatus [1]) was 70%. For the same molecule, the Activity (Caenorhabditis elegans [4]) was “Active”, the Activity (NHDF [5]) was “Active” and the Activity (Nicotiana tabacum) was 111%.
For `c1csc(CCNc2ncnc3[nH]cnc23)c1`, the Activity (Triticum aestivum) was “inactive”, the Activity (Amaranthus caudatus [1]) was 80% and the Activity (Nicotiana tabacum) was 77%.
For `Clc1nc(NCc2cccs2)c2ncn(C3CCCO3)c2n1` (centres undefined), the Activity (Triticum aestivum) was “inactive”, the Activity (Amaranthus caudatus [1]) was 101% and the Activity (Nicotiana tabacum) was 108%.
Work on `Clc1nc(NCc2ccco2)c2ncn(C3CCCO3)c2n1` (centres undefined) yielded an Activity (Triticum aestivum) of 75%, a remaining at 24 h, 100 µM [6] of 100% and a viability at 24 h, 7.8 µM [7] of 120%. For the same molecule, the viability at 24 h, 31.3 µM [8] was 109%, the Activity (BJ) was under 10% and the remaining at 1 h, 100 µM [9] was 100%. The viability at 24 h, 15.6 µM [10] was 120%, the viability at 24 h, 125 µM [11] was 105% and the viability at 24 h, 62.5 µM [12] was 110%. It also gave an Activity (Amaranthus caudatus [1]) of 88%, a viability at 24 h, 3.9 µM [13] of 116% and a viability at 24 h, 3.9 µM [14] of 100%. For the same molecule, the remaining at 24 h, 100 µM [15] was 92.9%, the remaining at 24 h, 100 µM [16] was 0.9% and the viability at 24 h, 31.3 µM [17] was 105%. For the same molecule, the remaining at 1 h, 100 µM [18] was 100%, the viability at 24 h, 31.3 µM [19] was 119% and the remaining at 1 h, 100 µM [20] was 100%. For the same molecule, the viability at 24 h, 7.8 µM [21] was 107%, the viability at 24 h, 31.3 µM [22] was 103% and the viability at 24 h, 125 µM [23] was 97%. The Activity (Caenorhabditis elegans [24]) was “Active”, the viability at 24 h, 125 µM [25] was 101% and the viability at 24 h, 62.5 µM [26] was 116%. The Activity (HaCaT [27]) was “Active”, the remaining at 1 h, 100 µM [28] was 98.8% and the Activity (HaCaT [29]) was under 10%. For the same molecule, the viability at 24 h, 15.6 µM [30] was 103%, the Activity (Caenorhabditis elegans [4]) was “Active” and the viability at 24 h, 3.9 µM [31] was 107%. For the same molecule, the viability at 24 h, 15.6 µM [32] was 109%, the viability at 24 h, 62.5 µM [33] was 106% and the viability at 24 h, 15.6 µM [34] was 104%. The viability at 24 h, 62.5 µM [35] was 103%, the Activity [36] was under 0.05 equiv and the remaining at 24 h, 100 µM [37] was 51.7%. The Activity (Nicotiana tabacum) was 112%, the viability at 24 h, 7.8 µM [38] was 102% and the viability at 24 h, 125 µM [39] was 104%. For the same molecule, the viability at 24 h, 3.9 µM [40] was 100% and the viability at 24 h, 7.8 µM [41] was 104%.
